# Source: US20140228311A1, “CRYSTALLIZATION OF IDARUBICIN HYDROCHLORIDE” (HERAEUS PRECIOUS METALS GMBH & CO. KG, priority 2011, published 2014)
# Structures can show the parent of a compound that is named as a salt.
# Experiments:
# Assay type in all cases: physicochemical
# [1] = Thermodynamic stability of the crystalline form versus amorphous form; settings: compared with amorphous idarubicin hydrochloride
# [2] = Storage stability of crystalline idarubicin hydrochloride in drying chamber, content analysed by HPLC; settings: for Purity of idarubicin hydrochloride: HPLC
# Method: The crystalline idarubicin hydrochloride obtained in Example 1 was studied for its stability relative to storage at temperatures of 25° C. and 40° C. for various time periods. For this purpose, aliquots of the obtained crystalline idarubicin hydrochlorides were encapsulated individually. One half of the aliquots were stored in a drying chamber at 25° C., the other half were stored in a different drying chamber at 40° C. After the times specified below, individual samples were taken from the drying chambers and the content of idarubicin hydrochloride was analyzed by high performance liquid chromatography (HPLC).
# [3] = Storage of currently available idarubicin hydrochloride under typical storage conditions; settings: hydrolysis of the sugar group, increase in 4-demethoxydaunomycinone
Stability for long storage ([2]; long storage under elevated temperatures),"Purity of idarubicin hydrochloride ([2]; storage at 25° C., 0 weeks)","Purity of idarubicin hydrochloride ([2]; storage at 25° C., 1 week)","Purity of idarubicin hydrochloride ([2]; storage at 25° C., 2 weeks)","Purity of idarubicin hydrochloride ([2]; storage at 25° C., 4 weeks)","Purity of idarubicin hydrochloride ([2]; storage at 25° C., 8 weeks)","Purity of idarubicin hydrochloride ([2]; storage at 25° C., 24 weeks)","Purity of idarubicin hydrochloride ([2]; storage at 40° C., 0 weeks)","Purity of idarubicin hydrochloride ([2]; storage at 40° C., 1 week)","Purity of idarubicin hydrochloride ([2]; storage at 40° C., 2 weeks)","Purity of idarubicin hydrochloride ([2]; storage at 40° C., 4 weeks)","Purity of idarubicin hydrochloride ([2]; storage at 40° C., 8 weeks)","Purity of idarubicin hydrochloride ([2]; storage at 40° C., 24 weeks)",Decomposition during storage [3],SMILES,Thermodynamic stability [1]
extraordinarily high stability,99.95,99.90,99.87,99.93,99.84,99.91,99.95,99.87,99.87,99.92,99.83,99.91,–,"CC(=O)[C@]1(O)Cc2c(O)c3c(c(O)c2[C@@H](O[C@H]2C[C@H](N)[C@H](O)[C@H](C)O2)C1)C(=O)c1ccccc1C3=O [crystalline idarubicin hydrochloride, idarubicin hydrochloride]",thermodynamically more stable than amorphous idarubicin hydrochloride
–,–,–,–,–,–,–,–,–,–,–,–,–,steady decomposition,CC(=O)[C@]1(O)Cc2c(O)c3c(c(O)c2[C@@H](O[C@H]2C[C@H](N)[C@H](O)[C@H](C)O2)C1)C(=O)c1ccccc1C3=O [idarubicin hydrochloride],–
